# Read-outs that look alike come from different tables or passages of the source.
# Key:
# AR protein = molecular target: T1, AR protein (Homo sapiens, UniProt P10275); assay: Western blotting analysis of AR protein levels in VCaP cells, band quantification, DC50/DC90; type: cell-based; conditions: VCaP cells, Table 6; read-out: VCaP DC50
# T1 construct: endogenous in cells; host or cells: VCaP
# T1 sequence (P10275 1-920): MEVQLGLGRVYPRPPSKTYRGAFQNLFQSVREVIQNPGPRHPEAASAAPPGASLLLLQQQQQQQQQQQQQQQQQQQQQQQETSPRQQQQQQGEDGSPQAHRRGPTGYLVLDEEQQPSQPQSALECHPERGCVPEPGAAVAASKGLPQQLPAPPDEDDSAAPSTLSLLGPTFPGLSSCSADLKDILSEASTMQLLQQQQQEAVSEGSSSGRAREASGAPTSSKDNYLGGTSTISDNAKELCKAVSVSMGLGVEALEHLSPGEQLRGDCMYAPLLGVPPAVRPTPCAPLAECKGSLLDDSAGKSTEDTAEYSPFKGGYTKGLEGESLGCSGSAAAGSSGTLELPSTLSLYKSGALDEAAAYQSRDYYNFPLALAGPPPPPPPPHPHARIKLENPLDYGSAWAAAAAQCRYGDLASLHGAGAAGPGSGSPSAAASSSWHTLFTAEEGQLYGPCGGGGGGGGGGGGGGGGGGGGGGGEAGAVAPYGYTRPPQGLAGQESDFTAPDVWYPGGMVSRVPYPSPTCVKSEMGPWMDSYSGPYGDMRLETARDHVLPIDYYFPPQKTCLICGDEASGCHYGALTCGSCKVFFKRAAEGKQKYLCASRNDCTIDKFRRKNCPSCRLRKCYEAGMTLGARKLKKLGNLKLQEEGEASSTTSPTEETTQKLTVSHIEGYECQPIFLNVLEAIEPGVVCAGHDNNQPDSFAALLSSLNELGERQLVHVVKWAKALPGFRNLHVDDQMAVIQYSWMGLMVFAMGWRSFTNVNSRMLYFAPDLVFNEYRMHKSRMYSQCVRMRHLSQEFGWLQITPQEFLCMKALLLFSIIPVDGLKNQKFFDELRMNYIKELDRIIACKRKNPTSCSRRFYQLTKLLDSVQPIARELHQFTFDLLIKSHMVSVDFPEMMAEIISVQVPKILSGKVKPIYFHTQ
# Procedure: The appropriate cell line, e.g., prostate cancer LNCaP, Vcap, or 22RV1 cell line, was treated with Compounds of the Disclosure as indicated. The treated cells were lysed with RIPA buffer. […] GAPDH was used as a loading control.
# Bands were quantified with ImageJ software. The relative numbers of each band obtained from normalization with its corresponding GAPDH level were compared with Prism 8 software. The DC50 values were produced from Prism 8, and the DC90 values were calculated with an equation=Bottom+(Top−Bottom)/(1+10^((Log EC50−X)*HillSlope) based on DC50 and Hillslope values.
# [1] = Mouse PK studies after oral and IV dosing; type: in vivo; conditions: for F: PO 3 mg/kg vs IV 1 mg/kg; for AUC(0-t) / clearance / half-life / Vd / Cmax / Tmax: in vivo; for clearance: read-out: IV Cl (converted); for Vd: read-out: IV VSS
# Procedure: The pharmacokinetics of representative Compounds of the Disclosure were determined after oral and IV dosing at the concentrations indicated in mouse (Table 7). […] The vehicles used in these studies are either (i) 10% PEG400+90% PBS (adjusted to pH to 8.0 by 0.5 N NaOH); or (ii) 100% PEG200.
# [2] = iv, 1 mg/kg, IV, dose 1 mg/kg, read-out: IV AUC(0 − t)
# [3] = iv, 1 mg/kg, IV, dose 1 mg/kg, read-out: IV T1/2 (converted)
# [4] = po, 3 mg/kg, PO, dose 3 mg/kg, read-out: PO AUC(0 − t)
# [5] = po, 3 mg/kg, PO, dose 3 mg/kg, read-out: PO T1/2 (converted)
SMILES,DC50 (AR protein) [nM],F [1] [%],"AUC(0-t) [1, 2] [µg·h/mL]","clearance ([1]; iv, 1 mg/kg, IV, dose 1 mg/kg) [L/h/kg]","half-life [1, 3] [h]","Vd ([1]; iv, 1 mg/kg, IV, dose 1 mg/kg) [L/kg]","Cmax ([1]; po, 3 mg/kg) [µg/mL]","Tmax ([1]; po, 3 mg/kg) [h]","AUC(0-t) [1, 4] [µg·h/mL]","half-life [1, 5] [h]"
"C[C@H]1CC2(CCN(c3ccc(C(=O)N4CCN(C5CCN(c6ccc7c(c6)C(=O)N(C6CCC(=O)NC6=O)C7=O)CC5)CC4)cn3)CC2)CN1c1ccc(C#N)c(Cl)c1 (stereo partly drawn) [Cpd. No. 509, 2-chloro-4-((3S)-8-(5-(4-(1-(2-(2,6-dioxopiperidin-3-yl)-1,3-dioxoisoindolin-5-yl)piperidin-4-yl)piperazine-1-carbonyl)pyridin-2-yl)-3-methyl-2,8-diazaspiro[4.5]decan-2-yl)benzonitrile]",< 1,,,,,,,,,
"C[C@H]1CC2(CCN(c3ncc(C(=O)N4CCC(N5CCN(c6cc7c(cc6F)C(=O)N(C6CCC(=O)NC6=O)C7=O)CC5)CC4)cn3)CC2)CN1c1ccc(C#N)c(Cl)c1 (stereo partly drawn) [Cpd. No. 525, 2-chloro-4-((3S)-8-(5-(4-(4-(2-(2,6-dioxopiperidin-3-yl)-6-fluoro-1,3-dioxoisoindolin-5-yl)piperazin-1-yl)piperidine-1-carbonyl)pyrimidin-2-yl)-3-methyl-2,8-diazaspiro[4.5]decan-2-yl)benzonitrile]",< 1,,,,,,,,,
C[C@H]1CC2(CCN(c3ccc(C(=O)N4CC[C@@H](CN5CCN(c6ccc7c(c6)C(=O)N(C6CCC(=O)NC6=O)C7=O)CC5)C4)cc3)CC2)CN1c1ccc(C#N)c(Cl)c1 (some centres unmarked) [compound 448],,26,0.078,12.2,2.74,25.3,0.016,1.67,0.06,4.78
"C[C@H]1CC2(CCN(c3cnc(C(=O)N4CCC(CN5Cc6cc7c(cc6C5)C(=O)N(C5CCC(=O)NC5=O)C7=O)CC4)cn3)CC2)CN1c1ccc(C#N)c(Cl)c1 (stereo partly drawn) [Cpd. No. 495, 2-chloro-4-((3S)-8-(5-(4-((6-(2,6-dioxopiperidin-3-yl)-5,7-dioxo-3,5,6,7-tetrahydropyrrolo[3,4-f]isoindol-2(1H)-yl)methyl)piperidine-1-carbonyl)pyrazin-2-yl)-3-methyl-2,8-diazaspiro[4.5]decan-2-yl)benzonitrile]",,107,0.95,0.97,2.6,2.59,0.722,0.8,3.05,3.4
"C[C@H]1CC2(CCN(c3ccc(C(=O)N4CCN(C5CN(c6cc7c(cc6F)C(=O)N(C6CCC(=O)NC6=O)C7=O)C5)CC4)cc3)CC2)CN1c1ccc(C#N)c(Cl)c1 (stereo partly drawn) [Cpd. No. 344, 2-chloro-4-((3S)-8-(4-(4-(1-(2-(2,6-dioxopiperidin-3-yl)-6-fluoro-1,3-dioxoisoindolin-5-yl)azetidin-3-yl)piperazine-1-carbonyl)phenyl)-3-methyl-2,8-diazaspiro[4.5]decan-2-yl)benzonitrile]",,64,4.93,0.19,6.9,1.58,0.841,4,9.47,6
"C[C@H]1CC2(CCN(c3ccc(C(=O)N4CCN(C5CN(c6ccc7c(c6)C(=O)N(C6CCC(=O)NC6=O)C7)C5)CC4)cc3)CC2)CN1c1ccc(C#N)c(Cl)c1 (stereo partly drawn) [Cpd. No. 348, 2-chloro-4-((3S)-8-(4-(4-(1-(2-(2,6-dioxopiperidin-3-yl)-3-oxoisoindolin-5-yl)azetidin-3-yl)piperazine-1-carbonyl)phenyl)-3-methyl-2,8-diazaspiro[4.5]decan-2-yl)benzonitrile]",,12,10.1,0.1,7.5,0.9,0.334,2,3.74,7.6
"C[C@H]1CC2(CCN(c3ccc(C(=O)N4CCN(C5CN(c6ccc7c(c6)CN(C6CCC(=O)NC6=O)C7=O)C5)CC4)cc3)CC2)CN1c1ccc(C#N)c(Cl)c1 (stereo partly drawn) [Cpd. No. 346, 2-chloro-4-((3S)-8-(4-(4-(1-(2-(2,6-dioxopiperidin-3-yl)-1-oxoisoindolin-5-yl)azetidin-3-yl)piperazine-1-carbonyl)phenyl)-3-methyl-2,8-diazaspiro[4.5]decan-2-yl)benzonitrile]",,32,3.03,0.3,8.8,2.7,0.26,3.3,2.95,7.2
C[C@H]1CC2(CCN(c3ccc(C(=O)N4CCN(CC5CCN(c6cc7c(cc6F)C(=O)N(C6CCC(=O)NC6=O)C7=O)CC5)CC4)nn3)CC2)CN1c1ccc(C#N)c(Cl)c1 (some centres unmarked) [compound 588],,54,1.08,0.83,9.5,6.76,0.347,1,1.76,5.9
"C[C@H]1CC2(CCN(c3ccc(C(=O)N4CCC(CN5CCN(c6cc7c(cc6F)C(=O)N(C6CCC(=O)NC6=O)C7=O)CC5)CC4)cc3)CC2)CN1c1ccc(C#N)c(Cl)c1 (stereo partly drawn) [Cpd. No. 444, 2-chloro-4-((3S)-8-(4-(4-((4-(2-(2,6-dioxopiperidin-3-yl)-6-fluoro-1,3-dioxoisoindolin-5-yl)piperazin-1-yl)methyl)piperidine-1-carbonyl)phenyl)-3-methyl-2,8-diazaspiro[4.5]decan-2-yl)benzonitrile]",,68,7.81,0.11,8.3,1.2,1.25,4,16,6.9
C[C@H]1CC2(CCN(c3ccc(C(=O)N4CCN(C5CCN(c6cc7c(cc6F)C(=O)N(C6CCC(=O)NC6=O)C7=O)CC5)CC4)cc3)CC2)CN1c1ccc(C#N)c(Cl)c1 (some centres unmarked) [Cpd. No. 540],,61,7.99,0.12,7.3,0.96,1.13,3.3,14.5,7.8
"C[C@H]1CC2(CCN(c3ccc(C(=O)N4CCC(N5CCN(c6ccc7c(c6)C(=O)N(C6CCC(=O)NC6=O)C7=O)CC5)CC4)cc3)CC2)CN1c1ccc(C#N)c(Cl)c1 (stereo partly drawn) [Cpd. No. 443, 2-chloro-4-((3S)-8-(4-(4-(4-(2-(2,6-dioxopiperidin-3-yl)-1,3-dioxoisoindolin-5-yl)piperazin-1-yl)piperidine-1-carbonyl)phenyl)-3-methyl-2,8-diazaspiro[4.5]decan-2-yl)benzonitrile]",,67,8.44,0.12,7.1,1.02,1.87,2,15.5,5.38
"C[C@H]1CC2(CCN(c3ccc(C(=O)N4CCC(CN5CCN(c6ccc7c(c6)C(=O)N(C6CCC(=O)NC6=O)C7=O)CC5)CC4)cc3)CC2)CN1c1ccc(C#N)c(Cl)c1 (stereo partly drawn) [Cpd. No. 442, 2-chloro-4-((3S)-8-(4-(4-((4-(2-(2,6-dioxopiperidin-3-yl)-1,3-dioxoisoindolin-5-yl)piperazin-1-yl)methyl)piperidine-1-carbonyl)phenyl)-3-methyl-2,8-diazaspiro[4.5]decan-2-yl)benzonitrile]",,42,5.24,0.17,9.2,1.7,0.847,2.67,6.57,5.37
C[C@H]1CC2(CCN(c3ccc(C(=O)N4CCN(C5CCN(c6ccc7c(c6)C(=O)N(C6CCC(=O)NC6=O)C7=O)CC5)CC4)cc3)CC2)CN1c1ccc(C#N)c(Cl)c1 (some centres unmarked) [Cpd. No. 302],,27,5.03,0.19,7,1.45,0.526,1.3,4.05,7.3

# From patent publication US20220380368A1, “SPIROCYCLIC ANDROGEN RECEPTOR PROTEIN DEGRADERS” (THE REGENTS OF THE UNIVERSITY OF MICHIGAN, priority 2019, published 2022)
